Measured values from US20150105252A1, “SUBSTITUTED PYRAZOLES AS HERBICIDES” (E I DU PONT DE NEMOURS AND COMPANY, priority 2013, published 2015).

How the values were obtained:
[1] = tested on: wheat; experiment: Test A preemergence; format: in vivo, Triticum aestivum; details: preemergence
Method in brief: (§1)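 Seeds were sown in a loam soil–sand blend and given a directed soil spray preemergence; postemergence plants at 2–10 cm, one- to two-leaf stage, were sprayed with compound in non-phytotoxic solvent with surfactant. After about 10 days in a greenhouse, injury was visually rated against untreated controls (0 = no effect, 100 = complete control).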

[2] = tested on: corn; experiment: Test C postemergence; format: in vivo, Zea mays; details: for Corn plant response rating / Plant response rating, Corn: postemergence; for Corn plant response rating: 62 g ai/ha, scale 0 to 100
Method in brief: (§2)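 In this greenhouse assay, seeded soil (loam plus sand) or emerged seedlings in peat-vermiculite medium were treated with formulated compound. Roughly two weeks later (13–15 days), each species was scored visually relative to controls, from 0 for no effect to 100 for complete control.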

[3] = tested on: lambsquarters; experiment: Test C postemergence; format: in vivo, Chenopodium album; details: for Plant response rating (scale of 0 to 100 where 0 is no effect and 100 is complete control), Lambsquarters: 31 g ai/ha, visually evaluated after 13 to 15 days; for Lambsquarters plant response rating / Plant response rating, Lambsquarters: postemergence; for Lambsquarters plant response rating: 62 g ai/ha, scale 0 to 100
Method in brief: as §2

[4] = tested on: ducksalad; experiment: Test B flood; format: in vivo, Heteranthera limosa; details: 250 g ai/ha, visual rating on 0 to 100 scale (0 no effect, 100 complete control), 13 to 15 days
Method in brief: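 Greenhouse assay lasting 13 to 15 days. Treatment was into water flooding pots 3 cm deep, at the 2-leaf stage, with that level sustained afterwards. Scores compare treated with control plants visually, 100 denoting complete control and 0 no effect; a dash marks no test result.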

[5] = tested on: pigweed; experiment: Test A postemergence; format: in vivo, Amaranthus retroflexus
Method in brief: as §1

[6] = tested on: ryegrass, Italian; experiment: Test C postemergence; format: in vivo, Lolium multiflorum; details: for Plant response rating (scale of 0 to 100 where 0 is no effect and 100 is complete control), Ryegrass, Italian: 31 g ai/ha, visually evaluated after 13 to 15 days; for Ryegrass, Italian plant response rating / Plant response rating, Ryegrass, Italian: postemergence; for Ryegrass, Italian plant response rating: 62 g ai/ha, scale 0 to 100
Method in brief: as §2

[7] = tested on: waterhemp; experiment: Test C preemergence; format: in vivo, Amaranthus rudis
Method in brief: as §2

[8] = tested on: nutsedge, yellow; experiment: Test C preemergence; format: in vivo, Cyperus esculentus
Method in brief: as §2

[9] = tested on: ragweed; experiment: Test C preemergence; format: in vivo, Ambrosia elation
Method in brief: as §2

[10] = tested on: waterhemp; experiment: Test C postemergence; format: in vivo, Amaranthus rudis; details: for Plant response rating (scale of 0 to 100 where 0 is no effect and 100 is complete control), Waterhemp: 31 g ai/ha, visually evaluated after 13 to 15 days; for Waterhemp plant response rating / Plant response rating, Waterhemp: postemergence; for Waterhemp plant response rating: 62 g ai/ha, scale 0 to 100
Method in brief: as §2

[11] = tested on: foxtail, giant; experiment: Test C preemergence; format: in vivo, Setaria faberii
Method in brief: as §2

[12] = tested on: crabgrass, large; experiment: Test C preemergence; format: in vivo, Digitaria sanguinalis
Method in brief: as §2

[13] = 125 g ai/ha, visual injury, 0 to 100 scale, approx. 10 days
[14] = 500 g ai/ha, visual injury after approx. 10 days, 0 to 100 scale (0 no effect, 100 complete control)
[15] = 125 g ai/ha, scale 0 to 100, 0 no effect, 100 complete control
[16] = Postemergence, 500 g ai/ha, visual rating after approx. 10 days, 0 to 100 scale (0 no effect, 100 complete control)
[17] = postemergence, 125 g ai/ha, about 10 days, visual rating on 0 to 100 scale (0 no effect, 100 complete control)
[18] = Preemergence, 16 g ai/ha, scale 0 to 100
[19] = preemergence, 31 g ai/ha, scale 0 to 100 (0 no effect, 100 complete control), 13 to 15 days
[20] = preemergence, 62 g ai/ha, 13 to 15 days, scale 0 to 100, 0 = no effect, 100 = complete control
[21] = preemergence, 125 g ai/ha, scale 0 to 100, 0 is no effect, 100 is complete control
[22] = 250 g ai/ha, scale 0 to 100 (0 no effect, 100 complete control)
[23] = preemergence, 31 g ai/ha, visual rating, scale 0 to 100 (0 no effect, 100 complete control), 13 to 15 days
[24] = preemergence, 62 g ai/ha, scale 0 to 100 (0 no effect, 100 complete control), 13 to 15 days

SMILES: CCONC(=O)c1cc(CC)n(Cc2ccnc(C(F)(F)F)c2)n1 [Compound 77]
- Wheat plant response rating [1, 13]: 20
- Wheat plant response rating [1, 14]: 40
- Plant response rating (scale of 0 to 100), Corn ([2]; Postemergence, 16 g ai/ha): 0
- Plant response rating (scale of 0 to 100 where 0 is no effect and 100 is complete control), Corn ([2]; Postemergence, 31 g ai/ha, visually evaluated after 13 to 15 days): 0
- Corn plant response rating [2]: 5
- Plant response rating, Corn [2, 15]: 10
- Plant response rating (scale of 0 to 100), Lambsquarters ([3]; Postemergence, 16 g ai/ha): 15
- Plant response rating (scale of 0 to 100 where 0 is no effect and 100 is complete control), Lambsquarters ([3]; Postemergence): 35
- Lambsquarters plant response rating [3]: 35
- Plant response rating, Lambsquarters [3, 15]: 70
- Plant response rating, Ducksalad [4]: 80
- Pigweed plant response rating [5, 16]: 100
- Pigweed plant response rating [5, 17]: 100
- Plant response rating (scale of 0 to 100), Ryegrass, Italian ([6]; Postemergence, 16 g ai/ha): 0
- Plant response rating (scale of 0 to 100 where 0 is no effect and 100 is complete control), Ryegrass, Italian ([6]; Postemergence): 5
- Ryegrass, Italian plant response rating [6]: 5
- Plant response rating, Ryegrass, Italian [6, 15]: 5
- Plant response rating, Waterhemp [7, 18]: 70
- Waterhemp plant response rating [7, 19]: 98
- Plant response rating, Waterhemp [7, 20]: 98
- Waterhemp plant response rating [7, 21]: 100
- Plant response rating, Nutsedge, Yellow [8, 18]: 10
- Nutsedge, Yellow plant response rating [8, 19]: 10
- Plant response rating, Nutsedge, Yellow [8, 20]: 25
- Nutsedge, Yellow plant response rating [8, 21]: 60
- Plant response rating, Ragweed [9, 18]: 10
- Ragweed plant response rating [9, 19]: 35
- Plant response rating, Ragweed [9, 20]: 70
- Ragweed plant response rating [9, 21]: 85
- Plant response rating (scale of 0 to 100), Waterhemp ([10]; Postemergence, 16 g ai/ha): 10
- Plant response rating (scale of 0 to 100 where 0 is no effect and 100 is complete control), Waterhemp ([10]; Postemergence): 10
- Waterhemp plant response rating [10]: 10
- Plant response rating, Waterhemp [10, 15]: 65
- Plant response rating, Foxtail, Giant [11, 18]: 20
- Foxtail, Giant plant response rating [11, 19]: 80
- Plant response rating, Foxtail, Giant [11, 20]: 85
- Foxtail, Giant plant response rating [11, 21]: 100
- Plant response rating, Crabgrass, Large [12, 18]: 60
- Crabgrass, Large plant response rating [12, 19]: 85
- Plant response rating, Crabgrass, Large [12, 20]: 100
- Crabgrass, Large plant response rating [12, 21]: 100

SMILES: CCc1cc(-c2ccc(C(F)(F)F)cc2)nn1Cc1ccnc(C(F)(F)F)c1 [Compound 110]
- Wheat plant response rating [1, 13]: 80
- Wheat plant response rating [1, 14]: 100
- Corn plant response rating [2]: 15
- Plant response rating, Corn [2, 22]: 25
- Plant response rating, Corn [2, 15]: 25
- Plant response rating (scale of 0 to 100 where 0 is no effect and 100 is complete control), Lambsquarters ([3]; Postemergence): 40
- Lambsquarters plant response rating [3]: 75
- Plant response rating, Lambsquarters [3, 22]: 98
- Plant response rating, Lambsquarters [3, 15]: 85
- Plant response rating, Ducksalad [4]: 80
- Pigweed plant response rating [5, 16]: 100
- Pigweed plant response rating [5, 17]: 100
- Plant response rating (scale of 0 to 100 where 0 is no effect and 100 is complete control), Ryegrass, Italian ([6]; Postemergence): 20
- Ryegrass, Italian plant response rating [6]: 20
- Plant response rating, Ryegrass, Italian [6, 22]: 40
- Plant response rating, Ryegrass, Italian [6, 15]: 35
- Plant response rating (scale of 0 to 100), Waterhemp ([7]; Preemergence, 250 g ai/ha): 100
- Waterhemp plant response rating [7, 23]: 100
- Waterhemp plant response rating [7, 24]: 100
- Waterhemp plant response rating [7, 21]: 100
- Plant response rating (scale of 0 to 100), Nutsedge, Yellow ([8]; Preemergence, 250 g ai/ha): 5
- Nutsedge, Yellow plant response rating [8, 24]: 5
- Nutsedge, Yellow plant response rating [8, 21]: 5
- Plant response rating (scale of 0 to 100), Ragweed ([9]; Preemergence, 250 g ai/ha): 75
- Ragweed plant response rating [9, 23]: 35
- Ragweed plant response rating [9, 24]: 35
- Ragweed plant response rating [9, 21]: 60
- Plant response rating (scale of 0 to 100 where 0 is no effect and 100 is complete control), Waterhemp ([10]; Postemergence): 100
- Waterhemp plant response rating [10]: 100
- Plant response rating, Waterhemp [10, 22]: 100
- Plant response rating, Waterhemp [10, 15]: 100
- Plant response rating (scale of 0 to 100), Foxtail, Giant ([11]; Preemergence, 250 g ai/ha): 100
- Foxtail, Giant plant response rating [11, 23]: 98
- Foxtail, Giant plant response rating [11, 24]: 98
- Foxtail, Giant plant response rating [11, 21]: 100
- Plant response rating (scale of 0 to 100), Crabgrass, Large ([12]; Preemergence, 250 g ai/ha): 100
- Crabgrass, Large plant response rating [12, 23]: 95
- Crabgrass, Large plant response rating [12, 24]: 98
- Crabgrass, Large plant response rating [12, 21]: 100
